Legend:
human memory T-cell = experiment: Stimulation of memory T-cells in human MNC with recall antigens PPD and TT, 3H-thymidine incorporation; type: cell-based; details: FIG. 20
Protocol: For stimulation of T-lymphocytes, human MNC were cultured in RPMI-1640 medium, containing […], and 10% of inactivated human serum at a concentration of 0.5 to 1.0×10^6 cells per ml in flat-bottom 96-well tissue culture plates. To investigate the adjuvant effect of MPLA and Hbg-peptides, the recall antigens tetanus toxoid (TT) and purified protein derivatives of M. tuberculosis (PPD) (both from Statens Serum Institute, Copenhagen, Danmark) were used. After 6 days of culture, cells were labeled with ^3H-Thymidine (3HTdR (2 Ci/mmol, 0.2 μCi/culture)) and after an additional day of culture the cells were harvested on glass-filter mats for measurement of incorporated radioactivity into the DNA. The results are expressed as mean±SD of duplicate cultures.
There is a close interaction between the innate immune system, as presented by e.g. monocytes and dendritic cells, and the adaptive immune system, as presented by T-lymphocytes and B-lymphocytes. Monocytes and dendritic cells present antigenic fragments to the cells of the adaptive immune system to initiate a specific immune reaction. In addition, they support the strength and polarization of the immune response by means of the release of cytokines. […]

[1] = Atomic force microscopy of MPLA dispersions; type: physicochemical; details: MPLA 25 μM on mica, alone or with equimolar peptide; after one hour
Protocol: Atomic force microscopy (AFM) allows a direct look onto the morphology of lipid aggregates on a molecular scale under almost physiological conditions. This allows obtaining depth profiles of MPLA dispersions down to a resolution limit of lower than 1 nm. For the analysis, MPLA dispersions were prepared at a concentration of 25 μM in physiological saline in the absence and presence of an equimolar content of Hbg-32.

[2] = Freeze-fracture transmission electron microscopy of MPLA; type: physicochemical; details: MPLA 1 mM alone or with equimolar peptide; FIG. 25
Protocol: A small amount of the samples was sandwiched between two copper profiles and frozen by plunging the sandwiches immediately into liquefied ethane-propane-mixture cooled in liquid nitrogen. Fracturing and replication were performed at −150° C. in a BAF 400T freeze-fracture device (BAL-TEC, Balzers, Liechtenstein) equipped with electron guns and a film sheet thickness monitor. For replication Pt(C) was evaporated under an angle of 35° and (C) under 90°. The replicas were placed on copper grids and cleaned with a chloroform-methanol mixture.

[3] = Small angle X-ray scattering (SAXS) of MPLA aggregates; type: physicochemical
Protocol: SAXS measurements were performed at the European Molecular Biology Laboratory (EMBL) outstation at the Hamburg synchrotron radiation facility HASYLAB using the camera X33. Diffraction patterns in the range of the scattering vector 0.1<s<1.0 nm^−1 (s=2 sin θ/λ, 2θ scattering angle and A the wavelength=0.15 nm) were recorded at 40° C. with exposure times of 1 min using an image plate detector with online readout (MAR345, MarResearch, Norderstedt/Germany). The lipid concentration was in all cases 20 mM. The s-axis was calibrated with Ag-behenate, which has a periodicity of […]. The diffraction patterns were evaluated as described previously (Howe et al. (2008a)), assigning the spacing ratios of the main scattering maxima to defined three-dimensional structures. The lamellar and cubic structures are the most relevant here. The following features characterize the supramolecular structure: • (1) lamellar: The reflections are grouped in equidistant ratios, i.e., 1, ½, ⅓, ¼, etc. of the • lamellar repeat distance dλ; • (2) cubic: The different space groups of these non-lamellar three-dimensional structures differ in the ratio of their spacings. The relation between reciprocal spacing shkl=1/dhkl and lattice constant a is
shkl=[(h^2+k^2+l^2)/a]^1/2 • (hkl=Miller indices of the corresponding set of plane).

Human MNC = experiment: Stimulation of human MNC with MPLA in the presence of Hb-derived peptides, cytokine ELISA of supernatant; type: cell-based; details: for synergistic activity with MPLA, IL-6 release / synergistic activity in enhancing the MPLA-induced cytokine (IL-8) release, screen of native Hbγ1-peptide library: 20 h; for synergistic activity in enhancing the MPLA-induced cytokine (IL-8) release, screen of native Hbγ1-peptide library: MPLA 10 μg/ml, peptide 10 μM, FIG. 4
Protocol: Human mononuclear cells (MNC) were isolated from peripheral blood of healthy donors by density-gradient centrifugation on Ficoll gradient media (PAA Laboratories GmbH, Pasching, Austria). The cells were suspended and cultured in RPMI-1640 medium, containing […]. 50 μl of a peptide solution were incubated with 50 μl of a MPLA solution in a U-form 96 well micro cell culture plate #3799 (Corning Costar GmbH, Bodenheim, Germany) for 15 min at 37° C. After this incubation period 20 μl of heat-inactivated (56° C./30 min) human serum or RPMI-1640 medium were added. Finally, 80 μl of a MNC cell suspension was added to give a final concentration of 1 to 2×10^6 cells for culture in the absence of human serum or 1×10^6 cells for culture in the presence of serum. After a culture time of 20 h the cells were spun down and the culture supernatants were harvested. The cytokine concentrations in the supernatants were determined by matched antibody pairs for ELISA obtained from Invitrogen GmbH, Darmstadt (Germany). Mostly, each value represents the mean±SD of duplicate culture. In FIG. 3 the mean of three independent experiments is given, each of these three independent experiments having duplicate cultures.

Purified human monocytes = experiment: Stimulation of purified human monocytes with MPLA in the presence of Hbγ1-peptides, IL-6 ELISA; type: cell-based; details: MPLA 1 μg/ml; peptide 1, 3, 10 μM; FIG. 9
Protocol: FIG. 9: Synergistic effect of Hbg-23 and Hbg-32 peptide on stimulation of human monocytes with MPLA. Purified human monocytes (>95%) were stimulated with MPLA (1 μg/ml) in the presence or absence of the Hbγ1-peptides Hbg-23 and Hbg-32-107 (1, 3 and 10 μM). Control cultures were kept without MPLA. After a culture period of 20 h, the IL-6 concentration in the supernatant was determined by ELISA. Each value represents the mean±SD of duplicate cultures.
Human mononuclear cells (MNC) were isolated from peripheral blood of healthy donors by density-gradient centrifugation on Ficoll gradient media (PAA Laboratories GmbH, Pasching, Austria). The cells were suspended and cultured in RPMI-1640 medium, containing […]. 50 μl of a peptide solution were incubated with 50 μl of a MPLA solution in a U-form 96 well micro cell culture plate #3799 (Corning Costar GmbH, Bodenheim, Germany) for 15 min at 37° C. After this incubation period 20 μl of heat-inactivated (56° C./30 min) human serum or RPMI-1640 medium were added. […] The cytokine concentrations in the supernatants were determined by matched antibody pairs for ELISA obtained from Invitrogen GmbH, Darmstadt (Germany). […]

[4] = MPLA 3 μg/ml, peptide 1, 3, 10 μM, FIG. 7, 10, 12, 15, 16, 29
[5] = MPLA 1 μg/ml, peptide 0.1-10 μM, FIG. 5, 19

## Monophosphoryl lipid A [MPLA]
Human memory T-cell; PPD 1 μg/ml or TT 0.1 LF/ml, MPLA 10-1000 ng/ml
  adjuvant activity on the stimulation of T-memory cells with recall antigens: very effective adjuvant activity
Human memory T-cell; PPD or TT induced proliferation
  MPLA concentration sufficient to exert a nearly optimal adjuvant effect: ≤ 10 ng/mL
[1]
  morphology of MPLA aggregates (AFM): densely packed multi-lamellar aggregates with some hundred nm extension in z-direction
[2]
  morphology of MPLA aggregates (freeze-fracture electron microscopy): very densely and lamellar packed aggregates with large sizes in the micrometer range
[3]; MPLA alone or in the presence of peptide, 40° C., FIG. 22
  aggregate structure of MPLA (SAXS): largely multi-lamellar
[3]; MPLA alone, FIG. 22A
  sharp reflection (multi-lamellar periodicity), SAXS: 4.11 nm

## VTLAAHLPAEFTPAVHASLDKFLASVSTVL (Hba-66)
Human MNC; [4]
  synergistic activity with MPLA, IL-6 release: only a minimal synergistic activity

## Hbg-25: peptide of the native Hbγ1-peptide library that includes F122, E125 and V126 (EFTPEVQASWQKMVT; Hbg-25)
Human MNC
  synergistic activity in enhancing the MPLA-induced cytokine (IL-8) release, screen of native Hbγ1-peptide library: inactive

## Hbg-24: native overlapping 15 or 16 amino acid peptide of human Hbγ1, Hbγ116-130 (IHFGKEFTPEVQASW; Hbg-24)
Human MNC; [5]
  synergistic activity with MPLA, IL-6 release: strong synergistic activity
Human MNC
  synergistic activity in enhancing the MPLA-induced cytokine (IL-8) release, screen of native Hbγ1-peptide library: best hits
Human MNC; listed as No. 24
  synergistic activity in enhancing the MPLA-induced cytokine (IL-8) release, screen of native Hbγ1-peptide library: profound synergistic activities

## CVLAHHFGKEFTPPVQAAYQKVVAGVANAL (Hbb-67)
Human MNC; [4]
  synergistic activity with MPLA, IL-6 release: synergistically active in a similar range as Hbg-35-146m

## Hbg-23: native overlapping 15 or 16 amino acid peptide of human Hbγ1, printed Hbγ11-125 (VTVLAIHFGKEFTPE; Hbg-23)
Purified human monocytes
  synergism with MPLA in stimulating purified human monocytes, IL-6 release: synergize with MPLA
Human MNC; [5]
  synergistic activity with MPLA, IL-6 release: strong synergistic activity
Human MNC; MPLA 3 μg/ml, peptide 1, 3, 10 μM, with or without 10% human serum, FIG. 8, 14
  synergistic effect with MPLA in the absence and presence of human serum, IL-6 release: synergistic effects in the absence as well as in the presence of human serum
Human MNC
  synergistic activity in enhancing the MPLA-induced cytokine (IL-8) release, screen of native Hbγ1-peptide library: best hits
Human MNC; listed as No. 23
  synergistic activity in enhancing the MPLA-induced cytokine (IL-8) release, screen of native Hbγ1-peptide library: profound synergistic activities
Human MNC; second batch, data not shown
  synergistic effect with MPLA during induction of IL-release, second batch of peptide: no synergistic effect

## Hbg-51: Hbg-35 alanine-scan peptide with Phe122/Ala-replacement (TVLAIHFGKEATPEVQASWQKMVTAVASAL; Hbg-51)
Human MNC; alanine-scan, MPLA 3 μg/ml, peptide 3 μM, FIG. 18
  effect of alanine replacement on the synergistic activity of Hbg-35 with MPLA, IL-6 release: enhanced the synergistic activity of Hbg-35

## VLAIHFGKEFTPEVQASW [Hbg-68, Hbγ1[113-130], common part structure of peptides Hbg-32 to Hbg-39]
Human MNC; [5]
  synergistic activity with MPLA, IL-6 release: only a minute synergistic activity or no activity at all

## TPEVQASWQKMVTAVA [Hbg-69]
Human MNC; [5]
  synergistic activity with MPLA, IL-6 release: only a minute synergistic activity or no activity at all

— patent publication US20160184404A1, “NOVEL HEMOGLOBIN-DERIVED PEPTIDE BASED PHARMACEUTICAL COMPOSITIONS” (CLINIQUE LA PRAIRIE, priority 2014, published 2016)
